The nature of the data set: Log P by HPLC on reversed phase columns (EEC directive 79/831 Annex V.A8). The format is physicochemical. Particulars: method marker [a] given with each value; Table 1.1, compounds of formula (I). In short, it runs like this:
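Values come from retention times calibrated against alkan-2-ones (3–16 carbons) by linear interpolation, using reversed-phase LC-UV per EEC directive 79/831 Annex V.A8. Acetonitrile gradient 10–95% with 0.1% formic acid [a], 0.001 M ammonium acetate [b] or 0.1% phosphoric acid [c]; several values within one method separated by "+".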

For `Cc1c(C(=O)NCC(=O)OC2CCCC2)sc(C#N)c1Br` [1.0965], the LogP was 3.24^[a].
Under `CCCOC(=O)C1(NC(=O)c2sc(C#N)c(Br)c2C)CC1` [1.0966] stands 2.98^[a]; under `Cc1c(C(=O)NCC(=O)Oc2ccccc2)sc(C#N)c1Br` [1.0967], 3.10^[a]; under `Cc1c(C(=O)NC2(C(=O)OC3CCC3)CC2)sc(C#N)c1Br` [1.0968], 3.13^[a].
`CCCCOC(=O)C1(NC(=O)c2sc(C#N)c(Br)c2C)CC1` [1.0969]: the LogP was 3.36^[a].
Regarding `Cc1c(C(=O)NC2(C(=O)OCC(C)C)CC2)sc(C#N)c1Br` [1.0970], the LogP was 3.33^[a].
With `Cc1c(C(=O)NC2(C(=O)OC(C)(C)C)CC2)sc(C#N)c1Br` [1.0971], the LogP is 3.28^[a].
Under `CCCCOC(=O)CNC(=O)c1sc(C#N)c(Br)c1C` [1.0972] stands 3.23^[a]; under `Cc1c(C(=O)NCC(=O)OCc2ccccc2)sc(C#N)c1Br` [1.0973], 3.26^[a]; under `CCOC(=O)C(NC(=O)c1sc(C#N)c(Br)c1C)C1CC1` (stereo not drawn) [1.0974], 3.15^[a].
For `Cc1c(C(=O)NC2(C(=O)OCc3ccccc3)CC2)sc(C#N)c1Br` [1.0975], the LogP is 3.39^[a].
For the molecule `CNC(=S)C1(NC(=O)c2sc(Br)c(Br)c2F)CC1` [1.0976], the LogP was 2.82^[a].
Under `CN(C)C(=S)C1(NC(=O)c2sc(Br)c(Br)c2F)CC1` [1.0977] stands 2.93^[a]; under `COC(=O)C1(NC(=O)c2sc(Cl)c(C)c2Cl)CC1` [1.0978], 2.86^[a].
For `COC(=O)C1(NC(=O)c2sc(Br)c(Br)c2F)CCC1` [1.0979], the LogP is 3.32^[a].
Regarding `Cc1c(C(=O)NC2(C(=O)OC3CCCC3)CC2)sc(C#N)c1Br` [1.0980], the LogP was 3.36^[a].
With `Cc1c(C(=O)NCC(=O)OC(C)(C)C)sc(C#N)c1Br` [1.0981] the figure was 3.14^[a].
Under `Cc1c(C(=O)NCC(=O)OCC2CC2)sc(C#N)c1Br` [1.0982] stands 2.86^[a]; under `CCCOC(=O)CNC(=O)c1sc(Br)c(Br)c1Cl` [1.0983], 3.76^[a].
For the molecule `N#CCCOC(=O)CNC(=O)c1sc(Br)c(Br)c1Cl` [1.0984], the LogP was 2.76^[a].
Under `O=C(CNC(=O)c1sc(Br)c(Br)c1Cl)OCC1CC1` [1.0985] stands 3.79^[a].
For the molecule `CC(C)(C)OC(=O)CNC(=O)c1sc(Br)c(Br)c1Cl` [1.0986], the LogP was 4.20^[a].
Under `CCCCOC(=O)CNC(=O)c1sc(Br)c(Br)c1Cl` [1.0987] stands 4.22^[a]; under `O=C(CNC(=O)c1sc(Br)c(Br)c1Cl)OC1CCCC1` [1.0988], 4.28^[a]; under `O=C(CNC(=O)c1sc(Br)c(Br)c1Cl)Oc1ccccc1` [1.0989], 3.93^[a].
Under `O=C(CNC(=O)c1sc(Br)c(Br)c1Cl)OCc1ccccc1` [1.0990] stands 4.15^[a].
For the molecule `CCOC(=O)C(NC(=O)c1sc(Br)c(Br)c1Cl)C1CC1` (stereo not drawn) [1.0991], the LogP is 4.34^[a].
Under `C#CCOC(=O)CNC(=O)c1sc(C#N)c(Br)c1C` [1.0992] stands 2.43^[a]; under `Cc1c(C(=O)NCC(=O)OC2CC2)sc(C#N)c1Br` [1.0993], 2.54^[a].
With `C=CCOC(=O)CNC(=O)c1sc(C#N)c(Br)c1C` [1.0994] the figure was 2.65^[a]; with `CCCOC(=O)CNC(=O)c1sc(C#N)c(Br)c1C` [1.0995], 2.81^[a].
Under `Cc1c(C(=O)NCC(=O)OCCC#N)sc(C#N)c1Br` [1.0996] stands 2.09^[a].
As for `O=C(CNC(=O)c1sc(Br)c(Br)c1Cl)SCc1ccccc1` [1.0997], the LogP was 4.62^[a].
With `CCSC(=O)C(NC(=O)c1sc(Br)c(Br)c1Cl)C(C)C` (stereo not drawn) [1.0998] the figure was 5.45^[a].
With `CCOC(=O)CNC(=S)c1sc(Br)c(Br)c1F` [1.0999] the figure was 4.23^[a]; with `CC(C)COC(=O)CNC(=O)c1sc(Br)c(Br)c1F` [1.1000], 3.88^[a]; with `CNC(=S)CNC(=O)c1sc(Br)c(Br)c1F` [1.1001], 2.56^[a].
With `CN(C)C(=S)CNC(=O)c1sc(Br)c(Br)c1F` [1.1002] the figure was 3.19^[a].
Turning to `COC(=O)C1(NC(=O)c2sc(Cl)c(Br)c2Cl)CCC1` [1.1003], the LogP was 3.74^[a].
With `COC(=O)C1(NC(=O)c2sc(Cl)c(Cl)c2Br)CCC1` [1.1004] the figure was 3.85^[a].
As for `O=C(CNC(=O)c1sc(Br)c(Br)c1F)OC1CSC1` [1.1007], the LogP is 3.37^[a].
As for `N#CCOC(=O)CNC(=O)c1sc(Br)c(Br)c1F` [1.1008], the LogP is 2.67^[a].
Under `CC(C)C(C#N)NC(=O)c1sc(Br)c(Br)c1F` (stereo not drawn) [1.1010] stands 3.54^[a]; under `CC(C)C(C#N)NC(=O)c1sc(Cl)c(Cl)c1Br` (stereo not drawn) [1.1013], 3.84^[a]; under `N#CC1(NC(=O)c2sc(Cl)c(Cl)c2Br)CCC1` [1.1014], 3.37^[a].
Turning to `Cc1c(C(=O)NC2(C#N)CCC2)sc(C#N)c1Br` [1.1015], the LogP is 2.64^[a].
Regarding `Cc1c(C(=O)NC(C#N)C(C)C)sc(C#N)c1Br` (stereo not drawn) [1.1016], the LogP was 3.03^[a].
With `O=C(NC1(C(=O)O)CCC1)c1sc(Cl)c(Cl)c1Br` [1.1017] the figure was 2.95^[a]; with `O=C(CNC(=O)c1sc(Br)c(Br)c1F)OC1CCOCC1` [1.1018], 2.80^[a]; with `COC(=O)C(C)(C)NC(=O)c1sc(Cl)c(Br)c1Cl` [1.1019], 3.73^[a].
Under `COC(=O)C(C)(C)NC(=O)c1sc(Br)c(Br)c1Cl` [1.1020] stands 3.75^[a]; under `COC(=O)C(C)(C)NC(=O)c1sc(Cl)c(Cl)c1Br` [1.1021], 3.71^[a]; under `CC(C)(NC(=O)c1sc(Cl)c(Br)c1Cl)C(=O)O` [1.1022], 2.80^[a].
Under `CC(C)(NC(=O)c1sc(Br)c(Br)c1Cl)C(=O)O` [1.1023] stands 2.81^[a]; under `CC(C)(NC(=O)c1sc(Cl)c(Cl)c1Br)C(=O)O` [1.1024], 2.80^[a]; under `COC(=O)C(CCSC(C)=O)NC(=O)c1sc(Br)c(Br)c1Cl` (stereo not drawn) [1.1025], 3.98^[a].
Regarding `O=C(CNC(=O)c1sc(Br)c(Br)c1F)OCC(F)(F)F` [1.1026], the LogP was 3.40^[a].
With `C[Si](C)(C)COC(=O)CNC(=O)c1sc(Br)c(Br)c1F` [1.1027] the figure was 4.40^[a].
Under `COC(=O)C(CCSC(C)=O)NC(=O)c1sc(Cl)c(Cl)c1Br` (stereo not drawn) [1.1028] stands 3.98^[a]; under `O=C(O)C(NC(=S)c1sc(Br)c(Br)c1F)C1CC1` (stereo not drawn) [1.1029], 3.45^[a]; under `O=C(O)CNC(=S)c1sc(Cl)c(Cl)c1I` [1.1030], 3.13^[a].
Under `CCOC(=O)C1(NC(=O)c2sc(C#N)c(Cl)c2Cl)CSC1` [1.1041] stands 3.23^[a]; under `COC(=O)[C@H](CC(=O)O)NC(=O)c1sc(Br)c(Br)c1F` [1.1043], 2.28^[a]; under `COC(=O)[C@H](CC(=O)O)NC(=O)c1sc(Cl)c(Cl)c1Br` [1.1044], 2.58^[a].
For `CNC(=O)CNC(=O)c1sc(Br)c(Br)c1Cl` [1.1045], the LogP was 2.07^[a].
Under `CCOC(=O)C1(NC(=O)c2sc(Br)c(Cl)c2Cl)CSC1` [1.1046] stands 3.94^[a].
With `COC(=O)[C@H](CC(N)=O)NC(=O)c1sc(Cl)c(Cl)c1Br` [1.1047] the figure was 2.23^[a].
With `COC(=O)[C@H](CCC(N)=O)NC(=O)c1sc(Br)c(Br)c1F` [1.1048] the figure was 2.05^[a]; with `COC(=O)[C@H](CCC(N)=O)NC(=O)c1sc(Cl)c(Cl)c1Br` [1.1049], 2.25^[a]; with `COC(=O)[C@H](CCC(=O)O)NC(=O)c1sc(Cl)c(Cl)c1Br` [1.1050], 2.68^[a].
As to `CCOC(=O)C1(NC(=O)c2sc(Br)c(Br)c2C#N)CSC1` [1.1051], the LogP is 3.15^[a].
Under `CCOC(=O)C1(NC(=O)c2sc(Br)c(Br)c2C(F)F)CSC1` [1.1052] stands 3.58^[a]; under `COC(=O)C(C)(C)NC(=O)c1sc(C#N)c(Br)c1Br` [1.1053], 3.34^[a]; under `CCOC(=O)C1(NC(=O)c2sc(Cl)c(Cl)c2C#N)CSC1` [1.1054], 3.05^[a].
With `N#CC1(NC(=O)c2sc(Br)c(Br)c2Cl)CCCSC1` (stereo not drawn) [1.1055] the figure was 3.85^[a]; with `N#CC1(NC(=O)c2sc(Br)c(Br)c2F)CCCSC1` (stereo not drawn) [1.1056], 3.41^[a].
Under `CCOC(=O)C1(NC(=O)c2sc(Cl)c(Br)c2C)CSC1` [1.1057] stands 3.66^[a]; under `N#CCNC(=O)c1sc(C#N)c(Br)c1Br` [1.1058], 2.12^[a].
On to `CCOC(=O)C1(NC(=O)c2sc(Cl)c(Cl)c2C(F)F)CSC1` [1.1059], for which the LogP is 3.55^[a].
As to `CCOC(=O)C1(NC(=O)c2sc(Cl)c(Br)c2Br)CSC1` [1.1060], the LogP is 3.91^[a].
With `COC(=O)C(C)(C)NC(=O)c1sc(Br)c(Br)c1C(F)F` [1.1061] the figure was 3.21^[a].
With `CCOC(=O)C(C)(C)NC(=O)c1sc(Cl)c(Cl)c1Br` [1.1062] the figure was 4.24^[a]; with `CCOC(=O)C1(NC(=O)c2sc(Br)c(Cl)c2C)CSC1` [1.1063], 3.62^[a]; with `CCOC(=O)C(CO)NC(=O)c1sc(Br)c(Br)c1C(F)F` (stereo not drawn) [1.1064], 2.63^[a].
Under `COC(=O)C(CCSC)NC(=O)c1sc(Br)c(Br)c1C(F)F` (stereo not drawn) [1.1065] stands 3.55^[a].
Consider `COC(=O)C(NC(=O)c1sc(Br)c(Br)c1C(F)F)C(=O)OC` [1.1067], for which the LogP was 3.05^[a].
Regarding `CCOC(=O)C(CO)NC(=O)c1sc(Cl)c(Cl)c1C(F)F` (stereo not drawn) [1.1068], the LogP is 2.67^[a].

Values taken from patent US12642270B2, “Substituted thiophene carboxamides, thiophene carboxylic acids and derivatives thereof” (Bayer Aktiengesellschaft, priority 2019, dated 2026).
